Consider 5 compounds from ChEMBL document CHEMBL4354805, “Discovery of MK-8719, a Potent O-GlcNAcase Inhibitor as a Potential Treatment for Tauopathies” (J Med Chem, 2019).

pEC50, pIC50, pKi: −log10 of the molar value.

Series [1] can be described thus: Oral bioavailability in Wistar Han rat at 3 mg/kg. Type of series: ADME, organism-based. Particulars: in vivo.
Series [2] can be described thus: Clearance in Wistar Han rat at 2 mg/kg, iv. Type of series: ADME, organism-based. Particulars: in vivo.
Series [3] in a line: Ratio of drug uptake in rat brain to plasma at 3 mg/kg, po measured after 8 hrs. Particulars: read-out: BPR. Type of series: ADME, organism-based.
Series [4] in a line: AUCN in Wistar Han rat at 3 mg/kg, po. Type of series: ADME, organism-based. As to conditions: in vivo.
Series [5] can be described thus: Half life in Wistar Han rat at 2 mg/kg, iv. Type of series: ADME, organism-based. Particulars: in vivo.
The next series has as its system MDR1. Briefly: Apparent permeability in pig LLC-PK1 cells transfected with MDR1. Type of series: ADME, cell-based, Sus scrofa.
Series [6] is described as follows: Drug uptake in rat brain at 3 mg/kg, po measured after 8 hrs. Type of series: ADME, organism-based. As to conditions: in vivo.
A short description of series [7]: Volume of distribution at steady state in Wistar Han rat at 2 mg/kg, iv or 3 mg/kg, po. Type of series: ADME, organism-based. As to conditions: in vivo, read-out: Vdss.
A further series has as its system Rattus norvegicus. Briefly: Elevation of O-protein in rat brain at 3 mg/kg, po measured after 8 hrs relative to control. Type of series: functional.
Series [8] has as its target T1, Protein O-GlcNAcase (Rattus norvegicus, UniProt Q8VIJ5).
T1 sequence (Q8VIJ5 whole entry): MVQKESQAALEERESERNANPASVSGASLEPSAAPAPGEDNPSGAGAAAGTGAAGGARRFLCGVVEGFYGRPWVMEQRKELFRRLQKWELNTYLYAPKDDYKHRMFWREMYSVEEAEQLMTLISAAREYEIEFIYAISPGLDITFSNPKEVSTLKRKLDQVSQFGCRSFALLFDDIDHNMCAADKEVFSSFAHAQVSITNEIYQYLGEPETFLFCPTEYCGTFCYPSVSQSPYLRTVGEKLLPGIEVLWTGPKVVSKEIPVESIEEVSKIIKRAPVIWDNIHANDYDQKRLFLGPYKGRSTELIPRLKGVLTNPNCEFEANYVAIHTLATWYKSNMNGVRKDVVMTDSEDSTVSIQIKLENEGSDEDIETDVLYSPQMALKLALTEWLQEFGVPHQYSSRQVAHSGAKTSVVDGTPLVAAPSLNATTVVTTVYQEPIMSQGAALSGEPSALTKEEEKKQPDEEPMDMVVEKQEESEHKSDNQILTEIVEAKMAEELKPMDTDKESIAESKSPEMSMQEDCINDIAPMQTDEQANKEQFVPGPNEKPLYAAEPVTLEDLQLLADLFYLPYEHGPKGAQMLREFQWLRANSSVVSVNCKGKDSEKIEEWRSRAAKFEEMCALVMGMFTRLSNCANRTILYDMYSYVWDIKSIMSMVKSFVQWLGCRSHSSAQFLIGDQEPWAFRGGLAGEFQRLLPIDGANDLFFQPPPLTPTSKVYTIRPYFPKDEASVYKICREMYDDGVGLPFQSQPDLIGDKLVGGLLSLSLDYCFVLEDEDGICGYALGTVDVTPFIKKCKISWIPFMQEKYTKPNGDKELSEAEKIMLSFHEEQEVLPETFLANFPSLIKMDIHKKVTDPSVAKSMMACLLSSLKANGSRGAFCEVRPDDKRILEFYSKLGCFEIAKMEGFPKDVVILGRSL
Briefly: Inhibition of OGA in rat PC12 cells assessed as OGlcNAcylated protein level incubated for 24 hrs by ELISA. Type of series: cell-based. A general note: ELISA stands for enzyme-linked immunosorbent assay.

Series [9] addresses T2, Protein O-GlcNAcase (Homo sapiens, UniProt O60502).
T2 sequence (O60502 whole entry): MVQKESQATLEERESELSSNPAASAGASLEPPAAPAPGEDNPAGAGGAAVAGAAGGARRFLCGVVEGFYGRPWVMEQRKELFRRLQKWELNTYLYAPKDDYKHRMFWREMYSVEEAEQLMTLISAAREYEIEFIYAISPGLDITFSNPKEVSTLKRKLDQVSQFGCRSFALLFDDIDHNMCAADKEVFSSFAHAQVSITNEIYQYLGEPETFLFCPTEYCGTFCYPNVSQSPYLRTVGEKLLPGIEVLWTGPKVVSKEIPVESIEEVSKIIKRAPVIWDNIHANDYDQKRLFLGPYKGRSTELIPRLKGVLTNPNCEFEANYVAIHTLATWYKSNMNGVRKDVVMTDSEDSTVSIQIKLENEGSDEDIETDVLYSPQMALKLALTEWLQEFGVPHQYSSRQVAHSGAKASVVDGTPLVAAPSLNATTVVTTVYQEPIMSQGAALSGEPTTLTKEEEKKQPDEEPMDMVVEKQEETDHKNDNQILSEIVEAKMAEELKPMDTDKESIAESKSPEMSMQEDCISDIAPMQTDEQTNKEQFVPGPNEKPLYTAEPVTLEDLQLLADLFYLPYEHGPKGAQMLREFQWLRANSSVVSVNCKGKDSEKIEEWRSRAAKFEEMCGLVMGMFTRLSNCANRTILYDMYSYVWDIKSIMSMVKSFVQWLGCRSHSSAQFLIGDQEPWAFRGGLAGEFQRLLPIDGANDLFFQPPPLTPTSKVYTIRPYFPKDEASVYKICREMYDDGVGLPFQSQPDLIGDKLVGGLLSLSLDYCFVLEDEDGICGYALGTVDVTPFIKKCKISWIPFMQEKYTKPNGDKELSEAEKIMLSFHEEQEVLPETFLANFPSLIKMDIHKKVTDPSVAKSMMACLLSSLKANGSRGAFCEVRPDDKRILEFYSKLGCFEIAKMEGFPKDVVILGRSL
Briefly: Inhibition of recombinant human OGA.

In series [10] the target is T3, Beta-hexosaminidase subunit beta (Homo sapiens, UniProt P07686).
T3 sequence (P07686 whole entry): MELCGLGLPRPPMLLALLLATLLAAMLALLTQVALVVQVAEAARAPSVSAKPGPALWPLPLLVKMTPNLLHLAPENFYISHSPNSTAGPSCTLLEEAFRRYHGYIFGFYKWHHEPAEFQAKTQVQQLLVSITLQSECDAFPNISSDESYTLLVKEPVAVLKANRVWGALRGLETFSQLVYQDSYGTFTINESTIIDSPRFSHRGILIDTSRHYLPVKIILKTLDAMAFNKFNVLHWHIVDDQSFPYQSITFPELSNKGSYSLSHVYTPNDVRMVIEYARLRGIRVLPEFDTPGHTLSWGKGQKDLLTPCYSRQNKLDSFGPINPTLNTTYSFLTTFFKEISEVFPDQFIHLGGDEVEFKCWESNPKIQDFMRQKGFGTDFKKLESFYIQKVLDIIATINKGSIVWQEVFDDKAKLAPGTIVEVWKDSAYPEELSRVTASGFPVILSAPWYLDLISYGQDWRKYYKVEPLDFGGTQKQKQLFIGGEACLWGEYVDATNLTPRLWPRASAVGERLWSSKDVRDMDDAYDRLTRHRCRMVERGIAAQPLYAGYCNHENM
Briefly: Inhibition of human beta hexosaminidase assessed as inhibitory constant using 4-methylumbelliferyl N-acetyl-beta-D-glucosaminide dihydrate as substrate measured every 60 sec for 45 mins by fluorescence spectrophotometry.

The target in another series is Cytochrome P450 2D6 (Homo sapiens, UniProt P10635). Briefly: Inhibition of CYP2D6 (unknown origin). The series is classed as ADME.
Series [11] concerns the target Voltage-dependent L-type calcium channel subunit alpha-1C (Homo sapiens, UniProt Q13936). Briefly: Inhibition of Cav1.2 (unknown origin).
Series [12] addresses T4, Nuclear receptor subfamily 1 group I member 2 (Homo sapiens, UniProt O75469).
T4 sequence (O75469 whole entry): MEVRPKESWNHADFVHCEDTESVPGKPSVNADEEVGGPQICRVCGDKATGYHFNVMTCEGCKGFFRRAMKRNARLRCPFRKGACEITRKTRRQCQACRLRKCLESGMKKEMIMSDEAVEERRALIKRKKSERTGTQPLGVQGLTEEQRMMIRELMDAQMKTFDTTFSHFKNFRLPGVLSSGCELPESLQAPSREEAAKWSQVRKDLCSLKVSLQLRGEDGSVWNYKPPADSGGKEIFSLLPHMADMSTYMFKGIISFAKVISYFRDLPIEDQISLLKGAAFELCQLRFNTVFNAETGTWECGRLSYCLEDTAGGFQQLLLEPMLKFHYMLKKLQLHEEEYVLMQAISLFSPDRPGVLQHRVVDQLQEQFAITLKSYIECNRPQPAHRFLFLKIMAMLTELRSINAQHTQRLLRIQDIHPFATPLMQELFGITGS
Briefly: Activation of PXR (unknown origin) assessed as CYP3A4 induction.

Series [13] has as its target Sodium channel protein type 5 subunit alpha (Homo sapiens, UniProt Q14524). Briefly: Inhibition of Nav1.5 (unknown origin).
The target in a further series is Cytochrome P450 3A4 (Homo sapiens, UniProt P08684). Briefly: Inhibition of CYP3A4 (unknown origin). The series is classed as ADME.
Series [14] deals with Voltage-gated inwardly rectifying potassium channel KCNH2 (Homo sapiens, UniProt Q12809). Briefly: Displacement of MK-0499 from human ERG.
The next series concerns the target Cytochrome P450 2C9 (Homo sapiens, UniProt P11712). Briefly: Inhibition of CYP2C9 (unknown origin). The series is classed as ADME.

Chain of Cytochrome P450 2C9 (P11712 whole entry): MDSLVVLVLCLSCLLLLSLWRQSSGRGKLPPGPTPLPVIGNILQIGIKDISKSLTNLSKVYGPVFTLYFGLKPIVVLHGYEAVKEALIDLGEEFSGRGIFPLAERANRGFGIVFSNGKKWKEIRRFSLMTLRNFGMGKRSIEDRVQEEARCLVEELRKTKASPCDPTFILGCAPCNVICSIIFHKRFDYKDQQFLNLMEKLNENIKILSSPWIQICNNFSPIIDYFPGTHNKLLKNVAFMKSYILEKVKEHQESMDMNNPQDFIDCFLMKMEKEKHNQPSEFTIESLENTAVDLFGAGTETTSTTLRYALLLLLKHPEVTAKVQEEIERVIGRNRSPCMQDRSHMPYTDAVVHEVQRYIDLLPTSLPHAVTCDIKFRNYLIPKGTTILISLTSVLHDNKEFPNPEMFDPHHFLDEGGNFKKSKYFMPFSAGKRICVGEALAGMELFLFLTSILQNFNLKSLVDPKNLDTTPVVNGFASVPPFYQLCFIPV
Chain of Voltage-dependent L-type calcium channel subunit alpha-1C (Q13936 whole entry): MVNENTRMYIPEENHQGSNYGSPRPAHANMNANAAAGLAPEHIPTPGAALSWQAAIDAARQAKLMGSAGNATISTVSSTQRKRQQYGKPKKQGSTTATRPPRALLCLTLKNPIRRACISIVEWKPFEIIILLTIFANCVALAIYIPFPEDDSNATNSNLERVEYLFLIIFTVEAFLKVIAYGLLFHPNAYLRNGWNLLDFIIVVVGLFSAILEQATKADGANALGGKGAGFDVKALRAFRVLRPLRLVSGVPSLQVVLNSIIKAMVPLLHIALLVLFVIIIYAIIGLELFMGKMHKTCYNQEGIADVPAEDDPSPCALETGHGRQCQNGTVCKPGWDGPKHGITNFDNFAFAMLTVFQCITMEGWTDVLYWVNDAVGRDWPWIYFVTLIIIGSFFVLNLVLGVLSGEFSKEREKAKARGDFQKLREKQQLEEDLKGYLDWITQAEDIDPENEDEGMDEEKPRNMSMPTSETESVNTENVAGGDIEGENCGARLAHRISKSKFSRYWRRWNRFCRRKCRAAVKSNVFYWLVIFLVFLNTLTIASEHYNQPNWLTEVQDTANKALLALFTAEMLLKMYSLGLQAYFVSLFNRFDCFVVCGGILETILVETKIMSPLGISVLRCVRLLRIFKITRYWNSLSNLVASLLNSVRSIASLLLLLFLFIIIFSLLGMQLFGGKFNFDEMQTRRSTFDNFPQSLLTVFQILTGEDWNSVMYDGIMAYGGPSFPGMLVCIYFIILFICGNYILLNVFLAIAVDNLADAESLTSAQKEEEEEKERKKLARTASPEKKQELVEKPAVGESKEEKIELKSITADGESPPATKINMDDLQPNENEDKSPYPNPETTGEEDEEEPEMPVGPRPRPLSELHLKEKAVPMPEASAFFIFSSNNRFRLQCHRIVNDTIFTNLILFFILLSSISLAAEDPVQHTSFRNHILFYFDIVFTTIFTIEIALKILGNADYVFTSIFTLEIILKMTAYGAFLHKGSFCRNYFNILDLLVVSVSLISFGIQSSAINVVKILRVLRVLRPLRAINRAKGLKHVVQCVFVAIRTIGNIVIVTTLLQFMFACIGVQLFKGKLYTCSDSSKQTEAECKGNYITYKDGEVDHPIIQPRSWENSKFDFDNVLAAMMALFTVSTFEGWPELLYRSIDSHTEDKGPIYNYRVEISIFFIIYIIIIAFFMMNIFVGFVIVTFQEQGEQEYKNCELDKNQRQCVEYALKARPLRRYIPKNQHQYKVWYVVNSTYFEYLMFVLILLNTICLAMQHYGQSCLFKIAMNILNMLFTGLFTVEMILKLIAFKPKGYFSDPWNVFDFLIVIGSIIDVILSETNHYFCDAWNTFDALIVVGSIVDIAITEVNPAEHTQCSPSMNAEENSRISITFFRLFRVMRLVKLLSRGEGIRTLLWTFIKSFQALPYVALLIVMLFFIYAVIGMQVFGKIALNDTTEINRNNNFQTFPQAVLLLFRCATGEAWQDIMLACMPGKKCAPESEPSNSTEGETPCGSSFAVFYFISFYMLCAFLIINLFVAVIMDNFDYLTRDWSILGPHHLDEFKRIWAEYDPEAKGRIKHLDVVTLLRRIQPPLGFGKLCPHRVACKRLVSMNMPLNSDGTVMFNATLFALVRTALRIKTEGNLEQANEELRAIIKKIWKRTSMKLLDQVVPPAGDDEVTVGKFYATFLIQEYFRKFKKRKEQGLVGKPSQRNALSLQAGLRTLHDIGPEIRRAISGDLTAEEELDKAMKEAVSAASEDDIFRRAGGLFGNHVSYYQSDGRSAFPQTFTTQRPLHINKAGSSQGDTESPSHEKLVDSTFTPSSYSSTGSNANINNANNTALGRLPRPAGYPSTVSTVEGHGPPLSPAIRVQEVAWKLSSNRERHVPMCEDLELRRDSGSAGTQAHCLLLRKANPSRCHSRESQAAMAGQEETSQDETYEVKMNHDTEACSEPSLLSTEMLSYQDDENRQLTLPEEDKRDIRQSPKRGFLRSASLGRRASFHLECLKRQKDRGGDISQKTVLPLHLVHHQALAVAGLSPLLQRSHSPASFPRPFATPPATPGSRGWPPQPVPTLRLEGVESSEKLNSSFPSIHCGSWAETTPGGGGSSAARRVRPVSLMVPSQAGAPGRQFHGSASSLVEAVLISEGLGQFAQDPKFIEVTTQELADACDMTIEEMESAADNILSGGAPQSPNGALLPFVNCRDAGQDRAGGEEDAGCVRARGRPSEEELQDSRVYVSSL
Chain of Voltage-gated inwardly rectifying potassium channel KCNH2 (Q12809 whole entry): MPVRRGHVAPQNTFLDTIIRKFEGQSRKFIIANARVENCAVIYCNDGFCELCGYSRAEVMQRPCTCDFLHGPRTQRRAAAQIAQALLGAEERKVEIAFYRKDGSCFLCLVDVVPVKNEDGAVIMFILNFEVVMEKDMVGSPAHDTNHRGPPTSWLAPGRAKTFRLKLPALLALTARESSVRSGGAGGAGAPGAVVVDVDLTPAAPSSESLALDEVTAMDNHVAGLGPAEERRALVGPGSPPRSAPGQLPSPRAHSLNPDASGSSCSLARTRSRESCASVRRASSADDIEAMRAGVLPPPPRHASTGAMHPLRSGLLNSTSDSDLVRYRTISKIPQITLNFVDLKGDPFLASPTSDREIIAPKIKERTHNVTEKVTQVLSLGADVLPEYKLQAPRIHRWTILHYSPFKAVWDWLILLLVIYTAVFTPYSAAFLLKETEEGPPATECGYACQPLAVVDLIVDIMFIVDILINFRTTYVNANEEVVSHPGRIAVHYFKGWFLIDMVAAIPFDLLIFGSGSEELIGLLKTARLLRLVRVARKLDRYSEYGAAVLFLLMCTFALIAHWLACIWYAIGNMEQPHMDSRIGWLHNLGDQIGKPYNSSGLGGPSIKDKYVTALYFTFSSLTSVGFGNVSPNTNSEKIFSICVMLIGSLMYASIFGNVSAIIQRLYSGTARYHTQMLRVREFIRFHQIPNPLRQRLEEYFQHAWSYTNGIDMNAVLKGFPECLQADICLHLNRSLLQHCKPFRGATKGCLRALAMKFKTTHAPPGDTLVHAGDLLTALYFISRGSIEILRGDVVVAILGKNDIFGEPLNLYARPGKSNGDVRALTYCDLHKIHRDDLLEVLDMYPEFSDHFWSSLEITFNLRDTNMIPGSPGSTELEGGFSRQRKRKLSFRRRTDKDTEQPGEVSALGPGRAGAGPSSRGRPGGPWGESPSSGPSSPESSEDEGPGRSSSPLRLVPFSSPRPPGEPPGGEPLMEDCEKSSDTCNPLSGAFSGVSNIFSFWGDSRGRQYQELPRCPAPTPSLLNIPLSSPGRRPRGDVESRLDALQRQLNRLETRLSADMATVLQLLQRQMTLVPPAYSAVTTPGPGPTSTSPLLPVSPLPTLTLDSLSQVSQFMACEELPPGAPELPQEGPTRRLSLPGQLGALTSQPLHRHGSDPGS
Chain of Cytochrome P450 3A4 (P08684 whole entry): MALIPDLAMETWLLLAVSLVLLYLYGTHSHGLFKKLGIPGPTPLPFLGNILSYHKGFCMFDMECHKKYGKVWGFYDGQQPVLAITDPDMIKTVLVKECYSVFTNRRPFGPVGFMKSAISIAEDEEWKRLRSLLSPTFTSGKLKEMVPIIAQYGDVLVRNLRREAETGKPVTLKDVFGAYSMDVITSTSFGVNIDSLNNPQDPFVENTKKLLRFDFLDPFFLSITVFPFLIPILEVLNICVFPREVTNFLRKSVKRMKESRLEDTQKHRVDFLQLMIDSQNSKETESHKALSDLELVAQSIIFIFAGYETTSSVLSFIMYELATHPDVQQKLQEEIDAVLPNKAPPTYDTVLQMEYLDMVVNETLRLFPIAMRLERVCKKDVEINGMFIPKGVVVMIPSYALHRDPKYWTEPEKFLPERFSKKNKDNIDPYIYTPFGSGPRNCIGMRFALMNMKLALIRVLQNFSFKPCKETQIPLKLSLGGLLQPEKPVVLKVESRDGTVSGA
Chain of Cytochrome P450 2D6 (P10635 whole entry): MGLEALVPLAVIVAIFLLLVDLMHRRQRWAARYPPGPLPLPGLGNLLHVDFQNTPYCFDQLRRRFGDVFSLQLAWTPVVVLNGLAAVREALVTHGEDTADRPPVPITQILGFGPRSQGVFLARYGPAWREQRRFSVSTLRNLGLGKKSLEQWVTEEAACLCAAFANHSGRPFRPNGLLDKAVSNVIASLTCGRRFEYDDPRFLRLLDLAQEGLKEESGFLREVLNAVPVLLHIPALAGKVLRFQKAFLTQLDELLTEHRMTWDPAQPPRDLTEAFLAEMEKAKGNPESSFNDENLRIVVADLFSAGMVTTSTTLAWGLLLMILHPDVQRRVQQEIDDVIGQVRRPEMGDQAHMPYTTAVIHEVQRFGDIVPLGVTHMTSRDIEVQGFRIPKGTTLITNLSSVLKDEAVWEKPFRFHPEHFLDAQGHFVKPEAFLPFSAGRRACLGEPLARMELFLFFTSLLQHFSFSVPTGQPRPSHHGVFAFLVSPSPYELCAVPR

By bioavailability is commonly meant dose-corrected exposure relative to a reference, in per cent. As a reminder, the clearance is a measure of how efficiently the substance is removed, as volume per time. Low readings indicate a low capacity for elimination, high ones a high capacity for elimination. The half-life is the time needed for the level to fall by half in the phase considered. Low readings indicate fast loss, high ones slow loss. Usually Papp stands for the rate of passage across a membrane or cell layer, normalised by area and donor concentration. As usually defined, the pEC50 is the EC50 on a negative log10 scale, so that one unit is a factor of ten. By pKi is commonly meant the negative decadic logarithm of the Ki, by convention in mol/L. On to `CCCNC1=N[C@@H]2[C@@H](O)[C@H](O)[C@@H](C(F)F)O[C@@H]2S1`, for which the bioavailability in series [1] came out at 44.8%. This compound registered a clearance in [2] of 72.6 mL/min/kg. The Kp at 8 h in series [3] stood at 8.81. Further, the AUC/dose in [4] was 0.376 µM·kg·h/mg. The same compound showed a half-life in series [5] of 3.89 h. In addition, in the series with MDR1, the Papp turned out to be 14 ×10⁻⁶ cm/s. This compound also gave a Drug uptake in series [6] of 0.193 nmol/g. In series [7], the Vd turned out to be 5.99 L/kg. The “fold change (FC)” value in the series with Rattus norvegicus was determined as 1.81. Further, the pEC50 at Protein O-GlcNAcase [8] was 7.38. Further, the figures for the pKi (on Protein O-GlcNAcase [9]; in series [10]) were 8.28 and less than 5.00, respectively.

As usually defined, the pIC50 is the IC50 on a negative log10 scale, so that one unit is a factor of ten. `CCNC1=N[C@@H]2[C@@H](O)[C@H](O)[C@@H](COC)O[C@@H]2S1`: the pIC50 was less than 4.30 on Cytochrome P450 2D6; less than 4.52 in [11]; less than 4.52 in [13]; less than 4.30 against Cytochrome P450 3A4; less than 4.52 in series [14]; less than 4.30 against Cytochrome P450 2C9. In addition, the pEC50 in series [12] was less than 4.52. Besides, on Protein O-GlcNAcase [9], the pKi was 6.72.

In the case of `CCNC1=N[C@@H]2[C@@H](O)[C@H](O)[C@@H](C)O[C@@H]2S1`, the pIC50 against Cytochrome P450 2D6 is less than 4.30; in series [11], less than 4.52; in series [13], less than 4.52; against Cytochrome P450 3A4, less than 4.30; in [14], less than 4.52; at Cytochrome P450 2C9, less than 4.30. In addition, the pEC50 in series [12] was less than 4.52. In addition, the negative-log Ki (pKi) at Protein O-GlcNAcase [9] is 7.16.

On to `CCNC1=N[C@H]2[C@H](O[C@H](CO)C[C@@H]2O)S1`, for which the pIC50 on Cytochrome P450 2D6 was less than 4.30; in [11], less than 4.52; in series [13] it was less than 4.52; against Cytochrome P450 3A4, less than 4.30; in series [14], less than 4.52; at Cytochrome P450 2C9 it was less than 4.30. Besides, in the series on MDR1, the apparent permeability (Papp) turned out to be 7 ×10⁻⁶ cm/s. The negative-log EC50 (pEC50) in [12] was less than 4.52. For the same compound, the pKi on Protein O-GlcNAcase [9] was less than 5.52; in series [10], less than 5.00.

Take `CCNC1=N[C@H]2[C@H](O[C@H](CO)C(F)[C@@H]2O)S1` (some centres not stated): the pIC50 on Cytochrome P450 2D6 was less than 4.30; in series [11], less than 4.52; in series [13] it was less than 4.52; against Cytochrome P450 3A4, less than 4.30; in series [14], less than 4.52; against Cytochrome P450 2C9 it was less than 4.30. Moreover, the pEC50 in series [12] was less than 4.52. In addition, the pKi was less than 5.52 at Protein O-GlcNAcase [9] and less than 5.00 in series [10].
